The values that follow are results of earlier work, collected in US8198305B2, “1,2-benzisoxazol-3-yl compounds” (Concert Pharmaceuticals Inc., priority 2007, dated 2012).

Where two headings read alike, the source gives them in different places.

For this data set the following is noted: phase III clinical trial.

Regarding `COc1cc(C(C)=O)ccc1OCCCN1CCC(c2noc3cc(F)ccc23)CC1` [iloperidone, 1-[4-[3-[4-(6-fluoro-1,2-benzisoxazol-3-yl)piperidin-1-yl]propoxy]-3-methoxyphenyl]ethanone], the QTc prolongation is, setting by setting: (good metabolizers of iloperidone) 10.4 ms; (poor metabolizers of iloperidone) 15.0 ms.
